The subject of test [1] is MT4. Briefly: Cytotoxic concentration required to reduce the viability of mock-infected MT-4 cells by 50%. In kind it is functional. Conditions: Homo sapiens.
A short description of test [2]: Effective concentration required to achieve 50% protection of MT-4 cells against the cytopathic effect of HIV-1 virus. Conditions: Human immunodeficiency virus 1, MT4. It is filed as functional, cell-based. (Protection from cytopathic effect is a common read-out in antiviral testing.)
The species entered for test [3] is Homo sapiens. Kind of test: The effective concentration required to achieve 50% protection of human peripheral blood lymphocytes against the cytopathic effect of HIV-1 virus HTLV-IIIB strain. It is filed as functional, organism-based.
The test system of test [4] is MT4. Kind of test: The effective concentration required to achieve 50% protection of MT-4 cells against the cytopathic effect of HIV-2 virus LAV-2ROD. In kind it is functional, cell-based. Conditions: Homo sapiens.
Test [5] deals with MT4. Kind of test: The cytotoxic concentration of compound required to reduce the viability of mock-infected MT-4 cells by 50% on HIV-1 virus A012D strain. Conditions: Homo sapiens. It is filed as functional.
The species named for test [6] is Mus musculus. Briefly: Reduced IL-3 dependent colony formation in murine bone marrow progenitor cells at 50 uM. In kind it is functional.
The subject of test [7] is MT4. Kind of test: The cytotoxic concentration of compound required to reduce the viability of mock-infected MT-4 cells by 50% on HIV-1 virus LAV-2ROD strain. In kind it is functional. Conditions: Homo sapiens.
Test [8] concerns MT4. Kind of test: The effective concentration required to achieve 50% protection of MT-4 cells against the cytopathic effect of HIV-1 virus A012D strain. It is filed as functional, cell-based. Conditions: Homo sapiens.
The species entered for test [9] is Mus musculus. Briefly: Reduced GM-CSF dependent colony formation in murine bone marrow progenitor cells at 50 uM. It is filed as functional.
The species entered for test [10] is Mus musculus. Briefly: Reduced IL-3 dependent colony formation in murine bone marrow progenitor cells at 0.5 uM. It is filed as functional.
For test [11], the species on record is Mus musculus. Kind of test: Reduced GM-CSF dependent colony formation in murine bone marrow progenitor cells at 0.05 uM. It is filed as functional.
The species named for test [12] is Homo sapiens. Kind of test: The cytotoxic concentration of compound required to reduce the viability of mock-infected PBL cells by 50% on HIV-1 virus HTLV-IIIB strain. In kind it is functional.
For test [13], the species on record is Mus musculus. Kind of test: Reduced GM-CSF dependent colony formation in murine bone marrow progenitor cells at 5 uM. It is filed as functional.
The species named for test [14] is Mus musculus. Kind of test: Reduced IL-3 dependent colony formation in murine bone marrow progenitor cells at 5 uM. In kind it is functional.
Test [15] is filed under the species Mus musculus. Briefly: Reduced IL-3 dependent colony formation in murine bone marrow progenitor cells at 0.05 uM. In kind it is functional.
For test [16], the species on record is Mus musculus. Briefly: Reduced GM-CSF dependent colony formation in murine bone marrow progenitor cells at 0.5 uM. In kind it is functional.
The species entered for test [17] is Mus musculus. Kind of test: Reduced IL-3 dependent colony formation in murine bone marrow progenitor cells at 5uM. It is filed as functional.
Test [18] is filed under the species Mus musculus. Kind of test: Reduced GM-CSF dependent colony formation in murine bone marrow progenitor cells at 5uM. It is filed as functional.

Molecules are shown by their SMILES.

One may read the CC50 as the concentration at which the toxic effect on the cells reaches its halfway point. What is called EC50 is the concentration needed to bring the measured effect to its halfway point. Read a high EC50 as a less potent agent. In test [1], `COCCn1c(Cc2ccccc2)c(C(C)C)c(=O)[nH]c1=O` displayed a CC50 of 195 µM. Besides, a half-maximal effect in test [2] (EC50) was put at 0.052 µM.

`CCOCn1c(Cc2ccccc2)c(CC)c(=O)[nH]c1=O` gave a CC50 in [1] of 245 µM. The molecule further displayed an EC50 in [2] of 0.041 µM.

`CCc1c(Cc2ccccc2)n(COCCO)c(=O)[nH]c1=O` showed a CC50 in test [1] of 391 µM. The EC50 in [2] was 0.35 µM.

Regarding `CCOCn1c(Cc2ccccc2)c(C(C)C)c(=O)[nH]c1=O` [EMIVIRINE], the EC50 is 0.004 µM in test [3], more than 102 µM in [4], 0.003 µM in [8] and 0.0042 µM in [2]. For the same molecule, the CC50 in test [1] is 186 µM; in [5], 102 µM; in test [7] it was 102 µM; in test [12] it was 90 µM. The Colony_count turned out to be 109 in test [6]; 57 in test [9]; 137 in test [10]; 89 in test [11]; 77 in test [13]; 137 in test [14]. In addition, the Colony_count in [15] is 136; in test [16], 75.

As to `Cc1c(CCc2ccccc2)n(COCCO)c(=O)[nH]c1=O`, it took 444 µM to reach half-maximal cytotoxicity in [1] (CC50). Also, in test [2], the EC50 was more than 444 µM.

In test [1], `CCc1c(Cc2cc(C)cc(C)c2)n(COCCO)c(=O)[nH]c1=O` gave a CC50 of 281 µM. This molecule yielded an EC50 in [2] of 0.013 µM.

As for `CCOCn1c(Cc2cc(C)cc(C)c2)c(C(C)C)c(=O)[nH]c1=O`, half-maximal cytotoxicity in test [1] (CC50) was put at 43 µM. The EC50 in [2] was 0.0006 µM.

In test [1], `Cc1c(Sc2ccccc2)n(COCCO)c(=O)[nH]c1=O` [HEPT] had a CC50 of 740 µM. The EC50 in [2] stood at 7 µM.

Consider `CC(C)c1c(Cc2ccccc2)n(COCCO)c(=O)[nH]c1=O`, for which the half-maximal cytotoxic concentration (CC50) in test [1] was 295 µM. The same molecule gave an EC50 in [2] of 0.063 µM.

Take `Cc1c(-c2ccccc2)n(COCCO)c(=O)[nH]c1=O`: the CC50 in test [1] was found to be 166 µM. Also, the EC50 in [2] is more than 166 µM.

`CCc1c(Cc2ccccc2)n(CCOC)c(=O)[nH]c1=O` yielded a 50% cytotoxic concentration (CC50) in [1] of 362 µM. The molecule further yielded an EC50 in [2] of 0.25 µM.

Take `Cc1cc(C)cc(Cc2c(C(C)C)c(=O)[nH]c(=O)n2COCCO)c1`: half-maximal cytotoxicity in [1] (CC50) was put at 221 µM. Besides, the midpoint of the response in [2], the EC50, lay at 0.0027 µM.

In turn, `Cc1c(Cc2ccccc2)n(COCCO)c(=O)[nH]c1=O` displayed an EC50 in [2] of 23 µM. In other words, the double-digit micromolar range.

`CCCCn1c(Cc2ccccc2)c(C(C)C)c(=O)[nH]c1=O` came in with a CC50 in test [1] of 58 µM. In test [2], this molecule had an EC50 of 0.042 µM.

In the case of `CCCCn1c(Cc2ccccc2)c(CC)c(=O)[nH]c1=O`, the CC50 in [1] is more than 500 µM. In addition, the EC50 in [2] was found to be 0.21 µM.

For the molecule `Cc1cn([C@H]2C[C@H](N=[N+]=[N-])[C@@H](CO)O2)c(=O)[nH]c1=O` [ZIDOVUDINE], the EC50 in test [3] came to 0.002 µM; in test [8], 0.3 µM; in test [2], 0.003 µM. For the same molecule, the Colony_count in test [17] is 74; in test [18], 47; in [6] it was 10; in test [9], 14; in test [10] it was 109; in test [11], 85. For the same molecule, the figures for the Colony_count in test [15] and in test [16] were 141 and 70, respectively. Besides, the CC50 in test [1] amounted to 7.8 µM; in test [5], 7.8 µM; in test [7], 7.8 µM; in test [12], 12 µM.

As for `CCOCn1c(Cc2cc(C)cc(C)c2)c(CC)c(=O)[nH]c1=O`, the CC50 in [1] turned out to be 207 µM. A half-maximal effect in test [2] (EC50) was put at 0.0016 µM.

For the origin of these results see ChEMBL document CHEMBL1128585, “Synthesis and antiviral activity of 6-benzyl analogs of 1-[(2-hydroxyethoxy)methyl]-6-(phenylthio)thymine (HEPT) as potent and selective anti-HIV-1 agents” (J Med Chem, 1995).
